Results on two compounds are retold here after patent US9511017B2, “Method and composition for use in preparation of a patient for surgery” (priority 2005, dated 2016).

Data set [1] can be described thus: Transcutaneous penetration / comparative release of active ingredient in horizontal glass Franz-type diffusion cells. The conditions noted are these: 2 hrs; 0.5 g sample; mean of duplicates. The class given is in vitro ADME. The source says: The transcutaneous penetration and comparative release of active ingredient were compared using a horizontal glass Franz-type diffusion cells such as are described in R. Danids, (Skin Care Forum, Issue 37, August 2004, Cognis); S. Jung, (The University of California Irvine Undergraduate Research Journal, p. 25-26, Vol V, 2002, University of California Irvine); Guideline for Industry Non-sterile Semisolid Dosage Forms (SUPAC-SS CMC7), May 1997, U.S. Department of Health and Human Services FDA CDER. A standard cellophane dialysis membrane of MW cut off 6-8000 was used for the diffusion studies. The Franz cell receiving solution was composed of 50% v/v methanol/water. Cellophane membranes were mounted horizontally in the Franz cells. 0.5 g of sample were used for each test. The cell receptor was continuously stirred magnetically and maintained at 35+/−2° C. At the designated time 150 microliters aliquots were sampled from the receiving vessel of the Franz cells. 20 microliters were injected into HLPC. […]
0.5 g samples of compositions according to examples 2, 3 and 4 were compared over periods of 2, 4 and 7 hours with a prior art composition comprising 5% chlorhexidine in 62% ethyl alcohol. […] Column C, D, and E give the results for the actives in the respective formulations, both in mg and as a % of the sample quantity tested.

Data set [2] deals with Pseudomonas aeruginosa ATTC 15442. The conditions noted are these: triclosan alone, known; cited from earlier work.

For `Oc1cc(Cl)ccc1Oc1ccc(Cl)cc1Cl` [triclosan, 2,4,4-trichloro-2-hydroxy-diphenylether], in data set [1], the “triclosan penetrated, % of the sample quantity tested” value stood at 0.24%. Further, the “effectiveness against Pseudomonas aeruginosa” value in data set [2] is “relatively ineffective”.
`[H]/N=C(\N/C(=N/[H])NCCCCCCNC(=N)NC(=N)Nc1ccc(Cl)cc1)Nc1ccc(Cl)cc1` [chlorhexidine]: the “chlorhexidine penetrated, % of the sample quantity tested” value in data set [1] is listed as less than 0.24%.
